In US20110166126A1, “Compositions and Methods for Modulating Endophthalmitis Using Fluoroquinolones” (priority 2007, published 2011):
≈ marks a conversion by molar mass, not a printed value. Entries after “also recorded” stand apart in the source; their conditions may differ.

How the values were obtained:
[1] = system: LPS-stimulated cytokine production in human THP-1 monocytes; test: Inhibition of LPS-induced cytokine expression in human THP-1 monocytes (multiplex Luminex); assay type: cell-based; set-up: key to Inhibition of LPS-stimulated G-CSF production / Inhibition of LPS-stimulated GM-CSF production / Inhibition of LPS-stimulated IL-12p40 production / Inhibition of LPS-stimulated IL-1α production / Inhibition of LPS-stimulated IL-1β production / Inhibition of LPS-stimulated IL-1ra production / Inhibition of LPS-stimulated IL-6 production / Inhibition of LPS-stimulated IL-8 production / Inhibition of LPS-stimulated IP-10 production / Inhibition of LPS-stimulated MCP-1 production / Inhibition of LPS-stimulated MIP-1α production / Inhibition of LPS-stimulated VEGF production: “X” signifies significant inhibition at a particular concentration
Description: Human THP-1 monocytes (ATCC TIB 202) were purchased from American Type Culture Collection (Manassas, Va.) and maintained in RPMI 1640 medium (Invitrogen, Carlsbad, Calif.) supplemented with 10% fetal bovine serum (“FBS”, Invitrogen, Carlsbad, Calif.), 100 U/mL of penicillin (Invitrogen, Carlsbad, Calif.), and 100 μg/mL of streptomycin (Invitrogen, Carlsbad, Calif.) at 37° C. in a humidified incubator with 5% CO2. THP-1 cells were pre-cultured in RPMI 1640 medium containing 10% dialyzed serum for 24 h. […] Each treatment was performed in triplicate.
Samples were analyzed using multiplex bead technology, which utilizes microspheres as the solid support for immunoassays and allows the analysis of all cytokines from each sample (D. A. Vignali, J. Immunol. Methods, Vol. 243, 243-255 (2000)). Sixteen cytokines were measured according to the manufacturer's instructions. Briefly, 50 μl, of medium samples were incubated with antibody-coated capture beads overnight at 4° C. Washed beads were further incubated with biotin-labeled anti-human cytokine antibodies for 2 hours at room temperature followed by incubation with streptavidin-phycoerythrin for 30 min. Samples were analyzed using Luminex 200™ (Luminex, Austin, Tex.) and Beadview software v1.0 (Upstate Cell Signaling Solutions, Temecula, Calif.). Standard curves of known concentrations of recombinant human cytokines were used to convert fluorescence units (median fluorescence intensity) to cytokine concentration in pg/mL. Only the linear portions of the standard curves were used to quantify cytokine concentrations, and in instances where the fluorescence reading exceeded the linear range of the standard curve, an appropriate dilution was performed to ensure that the concentration was in the linear portion of the curve.
All cytokine concentrations (pg/mL) were expressed as mean±standard deviation. Statistical analysis comparing effects of treatment across groups was performed using a one-way ANOVA with a Dunnett's post-hoc comparison test using either vehicle control or LPS treatment as references. For all assays, p≦0.05 was predetermined as the criterion of statistical significance.

[2] = system: primary human corneal epithelial cells (HCEpiC); details: earlier study (PH07038); comparable or better potency compared to moxifloxacin; cited from earlier work
[3] = system: LPS-stimulated cytokine production in human THP-1 monocytes; details: earlier study [8] (PH07025); better potency compared to moxifloxacin; cited from earlier work
[4] = system: IL-1β induced IL-8 release in THP-1 monocytes; test: Effect on IL-1β-induced cytokine (IL-8) release from human THP-1 monocytes (Luminex); assay type: cell-based; details: for Effect on IL-1β induced IL-8 release / IC50: 18 h; for IC50: Homo sapiens, THP-1, 30 ng/mL IL-1β, four-parameter logistic fit, read-out: IC50 for inhibition of IL-1β induced IL-8 release
Description: Each treatment was performed in triplicate. Media was collected by centrifugation and used for determination of cytokine content using a cytokine Luminex kit. The alamarBlue assay was performed to evaluate cell viability.
After determining the optimal concentration of IL-1β to induce cytokine release (30 ng/mL), cells were pre-cultured in RPMI-1640 medium containing 10% dialyzed FBS in a T-75 flask. […] Each treatment was performed in triplicate. Media were collected and used for determination of cytokine content using a cytokine Luminex kit. AlamarBlue assay was performed to evaluate the cell viability.
(§1) Luminex: Median fluorescence intensity (MFI) was used to obtain the concentration of each cytokines in pg/ml based on the standard curve of each cytokine assayed by Luminex. The linear range of the standard curve for each cytokine was used for determination of cytokine concentration.
To determine inhibition of IL-1β-induced cytokine release into the medium by dexamethasone or fluoroquinolone compounds as well cell viability, statistical analysis was performed using one-way ANOVA-Dunnett's test on raw data, and P<0.05 was considered statistically significant.
A concentration vs. effect curve was plotted for experiment 2, using averaged data from selected samples. […] Data were fitted to a re-parameterized four-parameter logistic equation using similar methodology as that previously described, and utilizing the statistical analysis software JMP8.

THP-1 monocytes = test: IL-1β and LPS induced IL-8 release from THP-1 monocytes (experiment 1); assay type: cell-based, Human; details: 300, 100, 60, 30 and 10 ng/mL, 18 h
Description: Human monocytic (THP-1) cells were pre-cultured in basal RPMI-1640 medium (commercially available, for example, from Sigma Aldrich) containing 10% dialyzed FBS in a T-75 flask. After 24 h, cells were seeded in 48-well plates in RPMI-1640 medium containing 2% dialyzed FBS at a density of 5.0×10^5 cells/mL with vehicle, IL-1β (300, 100, 60, 30 and 10 ng/mL) and LPS (1 μg/mL) for 18 h (Table 3-1). Each treatment was performed in triplicate. Media were collected and used for determination of cytokine content using a cytokine Luminex kit. The alamarBlue assay was performed to evaluate the cell viability.
as §1
Data was expressed as mean±SD. To determine induction of cytokine release into the medium by IL-1β or LPS, statistical analysis was performed using one-way ANOVA-Dunnett's test, and P<0.05 was considered statistically significant.

[5] = 1 μg/mL, 10 μg/mL LPS, 18 hours
[6] = 10 μg/mL, 10 μg/mL LPS, 18 hours
[7] = 30 μg/mL, 10 μg/mL LPS, 18 hours
[8] = LPS-induced cytokine production, THP-1 monocytes

N[C@@H]1CCCCN(c2c(F)cc3c(=O)c(C(=O)O)cn(C4CC4)c3c2Cl)C1 [BOL-303224-A, besifloxacin]
Inhibition of LPS-stimulated IL-1α production ([1]; 0.1 μg/mL, 10 μg/mL LPS, 18 hours): X | Inhibition of LPS-stimulated G-CSF production [1, 5]: X | Inhibition of LPS-stimulated IL-1ra production [1, 5]: X | Inhibition of LPS-stimulated IL-1α production [1, 5]: X | Inhibition of LPS-stimulated IL-6 production [1, 5]: X | Inhibition of LPS-stimulated G-CSF production [1, 6]: X | Inhibition of LPS-stimulated IL-1ra production [1, 6]: X | Inhibition of LPS-stimulated IL-1α production [1, 6]: X | Inhibition of LPS-stimulated IL-6 production [1, 6]: X | Inhibition of LPS-stimulated VEGF production [1, 6]: X | Inhibition of LPS-stimulated G-CSF production [1, 7]: X | Inhibition of LPS-stimulated GM-CSF production [1, 7]: X | Inhibition of LPS-stimulated IL-1ra production [1, 7]: X | Inhibition of LPS-stimulated IL-1α production [1, 7]: X | Inhibition of LPS-stimulated IL-1β production [1, 7]: X | Inhibition of LPS-stimulated IL-6 production [1, 7]: X | Inhibition of LPS-stimulated IL-8 production [1, 7]: X | Inhibition of LPS-stimulated IL-12p40 production [1, 7]: X | Inhibition of LPS-stimulated IP-10 production [1, 7]: X | Inhibition of LPS-stimulated MCP-1 production [1, 7]: X | Inhibition of LPS-stimulated MIP-1α production [1, 7]: X | Inhibition of LPS-stimulated VEGF production [1, 7]: X | Effect on LPS-stimulated production of RANTES ([1]; 0.1-30 μg/mL, THP-1 monocytes): Neither moxifloxacin nor compound having Formula IV altered | Effect on LPS-stimulated production of fractalkine ([1]; 0.1-30 μg/mL, THP-1 monocytes): Neither moxifloxacin nor compound having Formula IV altered | Effects on GM-CSF, IL-1β, IL-8, IP-10, MCP-1, and MIP-1α after LPS stimulation (comparison of the two fluoroquinolones) ([1]; FIG. 1): comparable effects | Relative potency on G-CSF, IL-1α, IL-1ra, IL-6, and VEGF ([1]; FIG. 2, LPS-stimulated THP-1 monocytes): better potency than moxifloxacin | Concentration at which a significant inhibitory effect was observed for G-CSF [1, 8]: 1 µg/mL | Concentration at which a significant inhibitory effect was observed for GM-CSF [1, 8]: 30 µg/mL | Concentration at which a significant inhibitory effect was observed for IL-1α [1, 8]: 0.1 µg/mL | Concentration at which a significant inhibitory effect was observed for IL-1β [1, 8]: 30 µg/mL | Concentration at which a significant inhibitory effect was observed for IL-6 [1, 8]: 1 µg/mL | Concentration at which a significant inhibitory effect was observed for IL-8 [1, 8]: 30 µg/mL | Concentration at which a significant inhibitory effect was observed for IL-12p40 [1, 8]: 30 µg/mL | Concentration at which a significant inhibitory effect was observed for IP-10 [1, 8]: 30 µg/mL | Concentration at which a significant inhibitory effect was observed for MCP-1 [1, 8]: 30 µg/mL | Concentration at which a significant inhibitory effect was observed for MIP-1α [1, 8]: 30 µg/mL | Concentration as low as which a significant inhibitory effect was seen on IL-1α ([1]; LPS-stimulated THP-1 monocytes): 100 ng/mL | Concentration at which a significant inhibitory effect was seen on G-CSF ([1]; LPS-stimulated THP-1 monocytes): 1000 ng/mL | Concentration at which a significant inhibitory effect was seen on IL-1ra ([1]; LPS-stimulated THP-1 monocytes): 1000 ng/mL | Concentration at which a significant inhibitory effect was seen on IL-6 ([1]; LPS-stimulated THP-1 monocytes): 1000 ng/mL | Effect on IL-1β-stimulated cytokine expression in HCEpiC [2]: significantly inhibited | Effect on lipopolysaccharide (LPS)-stimulated cytokine expression in THP-1 human monocytes [3]: significantly inhibited | Effect on IL-1β induced IL-8 release ([4]; 10 μg/mL): significantly reduced; also recorded: diminished | Effect on IL-1β induced IL-8 release ([4]; 30 μg/mL and 10 μg/mL): significantly reduced | IC50 [4]: 7.5 µg/mL (≈ 19 µM) | Concentration needed to reduce IL-1β-induced IL-8 release relative to moxifloxacin ([4]; THP-1 cells): at a lower concentration than moxifloxacin

COc1c(N2C[C@@H]3CCCN[C@@H]3C2)c(F)cc2c(=O)c(C(=O)O)cn(C3CC3)c12 [Moxifloxacin, moxifloxacin, reference compound]
Inhibition of LPS-stimulated IL-12p40 production [1, 5]: X | Inhibition of LPS-stimulated IL-1ra production [1, 6]: X | Inhibition of LPS-stimulated IL-6 production [1, 6]: X | Inhibition of LPS-stimulated IL-12p40 production [1, 6]: X | Inhibition of LPS-stimulated IL-1ra production [1, 7]: X | Inhibition of LPS-stimulated IL-1α production [1, 7]: X | Inhibition of LPS-stimulated IL-1β production [1, 7]: X | Inhibition of LPS-stimulated IL-8 production [1, 7]: X | Inhibition of LPS-stimulated IL-12p40 production [1, 7]: X | Inhibition of LPS-stimulated IP-10 production [1, 7]: X | Inhibition of LPS-stimulated MIP-1α production [1, 7]: X | Inhibition of LPS-stimulated VEGF production [1, 7]: X | Concentration at which a significant inhibitory effect was observed for IL-1ra [1, 8]: 10 µg/mL | Concentration at which a significant inhibitory effect was observed for IL-1α [1, 8]: 30 µg/mL | Concentration at which a significant inhibitory effect was observed for IL-1β [1, 8]: 30 µg/mL | Concentration at which a significant inhibitory effect was observed for IL-6 [1, 8]: 10 µg/mL | Concentration at which a significant inhibitory effect was observed for IL-8 [1, 8]: 30 µg/mL | Concentration at which a significant inhibitory effect was observed for IL-12p40 [1, 8]: 1 µg/mL | Concentration at which a significant inhibitory effect was observed for IP-10 [1, 8]: 30 µg/mL | Concentration at which a significant inhibitory effect was observed for MIP-1α [1, 8]: 30 µg/mL | IC50 [4]: 10.9 ± 4.8 µg/mL (≈ 27.2 µM)

IL-1β: interleukin-1β, used to induce cytokine release in THP-1 cells
Stimulation of IL-8 release (THP-1 monocytes): stimulated
